# Reference: patent publication US11583525B2, “Geranylgeranyltransferase I inhibitor for treatment of a PTEN defective cancer” (H. LEE MOFFITT CANCER CENTER AND RESEARCH INSTITUTE, INC., priority 2017, dated 2023)
# Peptide text beside a SMILES is read from it. * marks the point of attachment. Cbz = O=C(OCc1ccccc1)*
# Tested on: Ca2+ response
# Test: Ca2+ response measured with aequorin in COS-7 cells expressing IP3R3(Q-FR/A-AA)
# Type: cell-based, African Green Monkey
# Conditions: serum re-stimulated 4 h with MG132, ATP
# Protocol: FIGS. 1A, 1B, 1C, 1D, 1E, 1F, 1G, and 1H show FBXL2-mediated degradation of IP3R3 controls Ca2+ flux and sensitivity to apoptosis. […] Left, two representative traces. Right, quantification of three independent experiments. P values were calculated by one-way ANOVA and multiple-comparisons test. Error bars indicate s.e.m. 1b, 1c, and 1d, Apoptosis evaluated after treatment with H2O2 using automated nuclei count analysis of twenty randomly chosen fields following a 16 h treatment (1b), immunoblot detection of cleaved PARP and cleaved caspase-3 following a 3 h treatment (1c), and automated analysis of cells with released cytochrome c (Cyt c) from 80 randomly chosen fields following a 3 h treatment (1d). […] P values were calculated by one-way ANOVA and multiple-comparisons test. […] Left, representative traces show concentrations of cytosolic Ca2+ measured with aequorin. Right, quantification of three independent experiments. P values were calculated by one-way ANOVA and multiple-comparisons test. […] Apoptosis shown in 1h was evaluated as in 1b, except that H2O2 treatment was for 5 h. Analysis of cytochrome c release shown in 1i was evaluated as in 1d. P values were calculated by unpaired t-test. […]
# FIGS. 7A, 7B, 7C, 7D, 7E, 7F, 7G, 7H, and 7I show FBXL2 controls Ca2+ mobilization and Ca2+-mediated apoptosis. […] P values were calculated by one-way ANOVA and multiple-comparisons test. […]
structure (smiles),measurement,value
CC(C)C[C@@H](C=O)NC(=O)[C@H](CC(C)C)NC(=O)[C@H](CC(C)C)NC(=O)OCc1ccccc1 [MG132] (Cbz-Leu-Leu-Leu-aldehyde),Ca2+ response,did not produce an increase of the Ca2+ response
